Data: US20250302846A1, “ANTIBIOTIC COMPOSITION AND METHODS OF USE THEREOF” (THE REGENTS OF THE UNIVERSITY OF COLORADO A BODY CORPORATE, priority 2022, published 2025)
Values after ≈ are worked out from the molar mass of the structure shown. Where two headings read alike, the source gives them in different places.

Legend:
staphylococcal strains = assay: MIC95 quoted for staphylococcal persister and biofilm experiments; format: cell-based; conditions: read-out: MIC95
Experimental: A-D) Overnight cultures of the indicated strains were treated at time 0 with DMSO, ciprofloxacin [4 μg/mL], vancomycin [10 μg/mL], or the corresponding MIC95 concentration of D66 (1x MIC95=130 μM, 49 μg/mL). Cultures were plated for enumeration of CFU at time points indicated. Mean and SEM of three biological replicates. E) RAW 264.7 macrophage-like cells and HeLa cells were infected with S. aureus USA300, at MOIs of 0.5 and 2.5, respectively. Cells were treated two hours after infection with DMSO (gray circle on Y axis), or dilutions of D66 from 40 μM. After 8 hours of infection, cells were lysed and plated for enumeration of CFU. Mean and SEM of biological duplicates performed with technical triplicates each with six dilutions of D66. The IC50 value that was calculatable is indicated.
Biofilm formation was monitored after 18 hours in TSB with subinhibitory concentrations of DMSO, rifampin (1x MIC95=0.05 μg/mL), vancomycin (1x MIC95=1 μg/mL), or D66 (1x MIC95=130 μM). A-D) Crystal violet staining for accumulated biofilm mass measured at A595. Mean and […]

RAW 264.7 cells = assay: Mitochondrial membrane potential with TMRM; conditions: uninfected RAW 264.7 cells; D66 first two hours; CCCP 7 μM
S. Typhimurium = assay: Propidium iodide membrane barrier assay; format: cell-based; conditions: LB with PMB [0.5 μg/mL]; D66 at 2x MIC95; SDS [0.005%] positive control
Experimental: FIG. 3A-F. D66 rapidly perturbs the bacterial cytoplasmic membrane with minor disruption of barrier function. Mid-log phase S. Typhimurium cells grown in LB with 0.5 μg/mL PMB were used for all experiments. A) Cell membrane potential was monitored with the fluorescent dye DiSC3 (5). Cells were treated at time 0 with DMSO, JD1 [70 μM], or D66. Data were normalized to DMSO at time 0 and corrected for the quenching effect of D66 (FIG. 6A, B) B) Cell membrane permeability was monitored by PI fluorescence. Cells were treated at time 0 with DMSO, SDS [0.005%] or D66. Samples were processed at the time points shown. A one-way ANOVA with a Dunnet's multiple comparison test, * P<0.005. C-F) Growth curves and kill-curves of cells treated at time 0 with either DMSO or D66. Culture aliquots were monitored for OD600 (C, E) or plated for enumeration of CFU (D, F). Data are presented as fold change. Mean and SEM of three biological replicates with technical triplicates are shown in all panels.
Propidium iodide membrane barrier assays: Compound, DMSO, or SDS was added to mid-log phase cells to the desired concentration, and cultures were sampled at 0, 10, 15, 20, 30 and 45 minutes. Five minutes before harvesting, PI [10 μg/mL] (Life Technologies) was added. Cells were pelleted, washed twice, resuspended in PBS, and monitored (ex535/em617 nm) using a BioTek Synergy H1 plate reader.

CO[C@H]1/C=C/O[C@@]2(C)Oc3c(C)c(O)c4c(O)c(c(/C=N/N5CCN(C)CC5)c(O)c4c3C2=O)NC(=O)/C(C)=C\C=C\[C@H](C)[C@H](O)[C@@H](C)[C@@H](O)[C@@H](C)[C@H](OC(C)=O)[C@@H]1C [rifampin, reference compound]
MIC (staphylococcal strains; staphylococcal strains): 0.05 µg/mL (≈ 0.0608 µM)

N#CC(C#N)=NNc1cccc(Cl)c1 [CCCP, carbonyl cyanide m-chlorophenyl hydrazone, reference compound]
TMRM fluorescence (mitochondrial membrane potential) (RAW 264.7 cells): decreased TMRM fluorescence

CCCCCCCCCCCCOS(=O)(=O)[O-].[Na+] [SDS, reference compound]
time of treatment after which PI signal increased (S. Typhimurium): 10 min

CN[C@H](CC(C)C)C(=O)N[C@H]1C(=O)N[C@@H](CC(N)=O)C(=O)N[C@H]2C(=O)N[C@H]3C(=O)N[C@H](C(=O)N[C@H](C(=O)O)c4cc(O)cc(O)c4-c4cc3ccc4O)[C@H](O)c3ccc(c(Cl)c3)Oc3cc2cc(c3O[C@@H]2O[C@H](CO)[C@@H](O)[C@H](O)[C@H]2O[C@H]2C[C@](C)(N)[C@H](O)[C@H](C)O2)Oc2ccc(cc2Cl)[C@H]1O [vancomycin, reference compound]
MIC (staphylococcal strains): 1 µg/mL (≈ 0.69 µM)
